O=C(O)c1ccc(C(=O)O)cc1
solubility (mole fraction)
Settings | in 2-ethylhexanol | in DMAc | in DMF | in DMSO | in NMP | in pyridine
313.15 K | 0.000293 | 0.0155 | 0.0325 | 0.0964 | 0.0558 | 0.0767
318.15 K | 0.000335 | 0.0199 | 0.0337 | 0.0989 | 0.0646 | 0.0767
323.15 K | 0.000377 | 0.0243 | 0.035 | 0.102 | 0.0736 | 0.0766
328.15 K | 0.000429 | 0.0304 | 0.0361 | 0.104 | 0.0838 | 0.0768
333.15 K | 0.000482 | 0.0365 | 0.0372 | 0.107 | 0.094 | 0.0769
338.15 K | 0.000559 | 0.0453 | 0.0383 | 0.108 | 0.0952 | 0.077
343.15 K | 0.000636 | 0.0541 | 0.0394 | 0.11 | 0.0963 | 0.077
348.15 K | 0.000724 | 0.065 | 0.0412 | 0.113 | 0.0974 | 0.0774
353.15 K | 0.000812 | 0.076 | 0.0429 | 0.116 | 0.0985 | 0.0778
358.15 K | 0.000915 | 0.0823 | 0.0442 | 0.118 | 0.0999 | 0.0783
363.15 K | 0.00102 | 0.0886 | 0.0455 | 0.121 | 0.101 | 0.0787

— BigSolDB 2.1
